The text below walks through data of patent US8343959B2, “N-phenyl-(piperazinyl or homopiperazinyl)-benzenesulfonamide or benzenesulfonyl-phenyl-(piperazine or homopiperazine) compounds suitable for treating disorders that respond to modulation of the serotonin 5-HT6 receptor” (Abbott GmbH & Co. KG, priority 2009, dated 2013).

Where a name gives a salt, the structure may show the parent alone. Bounds are passed on as bounds.

T1 sequence (P50406 whole entry): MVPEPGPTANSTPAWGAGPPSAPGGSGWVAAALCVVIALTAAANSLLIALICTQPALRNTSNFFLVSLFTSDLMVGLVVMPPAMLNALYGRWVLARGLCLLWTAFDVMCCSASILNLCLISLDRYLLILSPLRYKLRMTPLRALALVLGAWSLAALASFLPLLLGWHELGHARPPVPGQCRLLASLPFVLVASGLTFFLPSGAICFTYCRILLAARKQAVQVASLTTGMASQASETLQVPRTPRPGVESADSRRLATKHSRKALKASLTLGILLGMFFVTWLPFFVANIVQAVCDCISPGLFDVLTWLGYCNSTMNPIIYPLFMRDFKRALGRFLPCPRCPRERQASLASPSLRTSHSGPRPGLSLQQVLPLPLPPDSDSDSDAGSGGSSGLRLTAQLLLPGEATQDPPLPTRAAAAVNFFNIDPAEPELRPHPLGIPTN

One assay has as its target T1, h-5-HT6 receptor (Homo sapiens, UniProt P50406).
T1 construct: expressed in transfected cells
As to the kind of experiment: 5-HT6 receptor binding assay (displacement of [3H]-LSD).
Details: not given
The method, then: Displacement of Radioligands Binding to The Following Cloned Human Receptors
Cells from stable clonal cell lines expressing the corresponding receptor (5-HT6, α1-adrenergic, dopamine D2 or histamine H1 receptors) were washed with PBS (w/o Ca^++, Mg^++) and harvested in PBS with 0.02% EDTA. The cells were collected by centrifugation at 500 g for 10 min. at 4° C., washed with PBS and centrifuged (500 g, 10 min. 4° C.). The pellets were stored at −80° C. until use. For membrane preparation, the thawed cell pellet was resuspended in ice-cold sucrose buffer (0.25 M sucrose, 10 mM Hepes (pH 7.4), 1 mM Phenylmethylsulfonyl fluoride (PMSF) in DMSO, 5 μg/ml Pepstatin-A, 3 mM EDTA, 0.025% Bacitracin) and homogenized with a Branson Sonifier W-250 (Settings: Timer 4; Output Control 3; Duty Cycle constant; 2 to 3 cycles). Cell disruption was checked with the aid of a microscope. Remaining unbroken cells were pelleted at 1.000 g for 10 min. at 4° C. The sucrose buffer supernatant was then centrifuged at 60.000 g for 1 h at 4° C. (Beckman Ultrazentrifuge XL 80). The pellet was resuspended in 30 ml ice-cold Tris buffer (20 mM TRIS (pH 7.4), 5 μg/ml Pepstatin A, 0.1 mM PMSF, 3 mM EDTA) by pipetting through a 10 ml serological pipet and centrifuged for 1 h at 4° C. at 60.000 g. A final resuspension was performed in a small volume of ice-cold Tris buffer (see above) by pressing through a serological pipet followed by ultrasonic treatment with a Branson Sonifier W-250 (Settings: Timer 1; Output Control 3; Duty Cycle constant; 1 cycle). Protein concentration was determined (BCA-Kit; Pierce) and aliquots stored at −80° C. or in liquid nitrogen for long-term storage.
All receptor binding experiments were carried out in the corresponding assay buffer in a total volume of 200 μl in the presence of various concentrations of test compound (10^−5 M to 10^−9 M, tenfold serial dilution, duplicate determinations). The assays were terminated by filtration on polyethylenimine (PEI 0.1% or 0.3%) presoaked Packard Unifilter Plates (GF/C or GF/B) with a Tomtec Machin U 96 well-plate harvester. After the plates had been dried for 2 h at 55° C. in a drying chamber scintillation cocktail (BetaPlate Scint; PerkinElmer) was added. Radioactivity was measured in a Microbeta Trilux two hours after the addition of the scintillation mixture. Data derived from liquid scintillation counting were analysed by iterative non-linear regression analysis with the use of the Statistical Analysis System (SAS): a program similar to “LIGAND” as described by Munson and Rodbard (Analytical Biochemistry 107, 220-239 (1980).
HEK293 cells stably expressing the h-5-HT6 receptor (NCBI Reference Sequence XM 001435) were cultured in RPMI1640 medium supplemented with 25 mM HEPES, 10% fetal calf serum and 1-2 mM glutamine. The membrane preparation was performed as described in section 1. […] Non-specific binding was defined with 1 μM methiothepin. The binding reaction was carried out for 3.5 h at room temperature. During the incubation, the plates were shaken on a plate shaker at 100 rpm and terminated by filtration on Packard Unifilter GF/C (0.1% PEI) plates, followed by 2 wash cycles with ice-cold 50 mM Tris-HCl, 5 mM CaCl2.
Data derived from liquid scintillation counting were analyzed by iterative non-linear regression analysis with the use of the Statistical Analysis System (SAS): a program similar to “LIGAND” as described by Munson and Rodbard (Anal. Biochem. 1980, 107, 220-239). Fitting was performed according to formulae described by Feldman (Anal. Biochem. 1972, 48, 317-338). IC50, nH and Ki values were expressed as geometrical mean.
A general note: In a radioligand displacement assay an active substance lowers the binding of a labelled ligand.
For `Cc1ccc(S(=O)(=O)Nc2cccc(OC(F)F)c2)cc1N1CCNCC1` [Example 1, N-(3-Difluoromethoxy-phenyl)-4-methyl-3-piperazin-1-yl-benzenesulfonamide hydrochloride], the Ki is under 10 nM.
As to `Cc1ccc(S(=O)(=O)Nc2ccc(OC(F)F)cc2)cc1N1CCNCC1` [Example 7, N-(4-Difluoromethoxy-phenyl)-4-methyl-3-piperazin-1-yl-benzenesulfonamide hydrochloride], the Ki is under 50 nM.
Regarding `Cc1ccc(S(=O)(=O)Nc2ccccc2OC(F)F)cc1N1CCNCC1` [Example 17, N-(2-Difluoromethoxy-phenyl)-4-methyl-3-piperazin-1-yl-benzenesulfonamide hydrochloride], the Ki is under 10 nM.

Staying with this assay, now noted: membranes of HEK293 cells expressing h-5-HT6 receptor, 1 nM [3H]-LSD; read-out: Ki (5HT6).
`Cc1ccc(S(=O)(=O)Nc2ccccc2OC(F)F)cc1N1CCN(C)CC1` [Example 5, N-(2-Difluoromethoxy-phenyl)-4-methyl-3-(4-methyl-piperazin-1-yl)-benzenesulfonamide hydrochloride]: the Ki is under 50 nM.
Regarding `Cc1ccc(NS(=O)(=O)c2ccc(C)c(N3CCNCC3)c2)cc1OC(F)F` [Example 6, N-(3-Difluoromethoxy-4-methyl-phenyl)-4-methyl-3-piperazin-1-yl-benzene-sulfonamide hydrochloride], the Ki was under 50 nM.
On to `Cc1ccc(S(=O)(=O)Nc2cccc3c2OC(F)(F)O3)cc1N1CCNCC1` [Example 8, N-(2,2-Difluoro-benzo[1,3]dioxol-4-yl)-4-methyl-3-piperazin-1-yl-benzenesulfonamide hydrochloride], for which the Ki was under 500 nM.
On to `Cc1ccc(S(=O)(=O)N(CC2CC2)c2ccccc2OC(F)F)cc1N1CCNCC1` [Example 9, N-Cyclopropylmethyl-N-(2-difluoromethoxy-phenyl)-4-methyl-3-piperazin-1-yl-benzenesulfonamide hydrochloride], for which the Ki is under 500 nM.
Consider `Cc1ccc(S(=O)(=O)N(CC2CC2)c2cccc(OC(F)F)c2)cc1N1CCNCC1` [Example 10, N-Cyclopropylmethyl-N-(3-difluoromethoxy-phenyl)-4-methyl-3-piperazin-1-yl-benzenesulfonamide hydrochloride], for which the Ki was under 50 nM.
As to `CCCN(c1ccccc1OC(F)F)S(=O)(=O)c1ccc(C)c(N2CCNCC2)c1` [Example 11, N-(2-Difluoromethoxy-phenyl)-4-methyl-3-piperazin-1-yl-N-propyl-benzene-sulfonamide hydrochloride], the Ki is under 500 nM.
On to `CCCN(c1cccc(OC(F)F)c1)S(=O)(=O)c1ccc(C)c(N2CCNCC2)c1` [Example 12, N-(3-Difluoromethoxy-phenyl)-4-methyl-3-piperazin-1-yl-N-propyl-benzenesulfonamide hydrochloride], for which the Ki is under 50 nM.
With `CCN(c1cccc(OC(F)F)c1)S(=O)(=O)c1ccc(C)c(N2CCNCC2)c1` [Example 13, N-(3-Difluoromethoxy-phenyl)-N-ethyl-4-methyl-3-piperazin-1-yl-benzene sulfonamide hydrochloride], the Ki is under 50 nM.
On the same count and under the same terms, then `Cc1ccc(S(=O)(=O)N(C)c2cccc(OC(F)F)c2)cc1N1CCNCC1` [Example 14, N-(3-Difluoromethoxy-phenyl)-4,N-dimethyl-3-piperazin-1-yl-benzenesulfonamide hydrochloride], with under 100 nM; and `CCN(c1ccccc1OC(F)F)S(=O)(=O)c1ccc(C)c(N2CCNCC2)c1` [Example 15, N-(2-Difluoromethoxy-phenyl)-N-ethyl-4-methyl-3-piperazin-1-yl-benzene sulfonamide hydrochloride], with under 500 nM.
Turning to `Cc1ccc(S(=O)(=O)N(C)c2ccccc2OC(F)F)cc1N1CCNCC1` [Example 16, N-(2-Difluoromethoxy-phenyl)-N-methyl-4-methyl-3-piperazin-1-yl-benzene sulfonamide hydrochloride], the Ki was under 500 nM.
Regarding `COc1ccc(S(=O)(=O)Nc2ccc(C)c(OC(F)F)c2)cc1N1CCNCC1` [Example 18, N-(3-Difluoromethoxy-4-methyl-phenyl)-4-methoxy-3-piperazin-1-yl-benzene-sulfonamide hydrochloride], the Ki is under 10 nM.
Take `COc1ccc(S(=O)(=O)Nc2cccc(OC(F)F)c2)cc1N1CCNCC1` [Example 24, N-(3-Difluoromethoxy-phenyl)-4-methoxy-3-piperazin-1-yl-benzenesulfonamide hydrochloride]: the Ki is under 10 nM.
With `COc1ccc(NS(=O)(=O)c2ccc(OC)c(N3CCNCC3)c2)cc1OC(F)F` [Example 25, N-(3-Difluoromethoxy-4-methoxy-phenyl)-4-methoxy-3-piperazin-1-yl-benzenesulfonamide hydrochloride], the Ki is under 10 nM.
As for `COc1ccc(S(=O)(=O)Nc2ccccc2OC(F)F)cc1N1CCNCC1` [Example 26, N-(2-Difluoromethoxy-phenyl)-4-methoxy-3-piperazin-1-yl-benzenesulfonamide hydrochloride], the Ki is under 10 nM.
`COc1ccc(S(=O)(=O)N(C)c2ccccc2OC(F)F)cc1N1CCNCC1` [Example 27, N-(2-Difluoromethoxy-phenyl)-4-methoxy-N-methyl-3-piperazin-1-yl-benzenesulfonamide hydrochloride]: the Ki was under 50 nM.
As for `COc1ccc(N(C)S(=O)(=O)c2ccc(OC)c(N3CCNCC3)c2)cc1OC(F)F` [Example 28, N-(3-Difluoromethoxy-4-methoxy-phenyl)-4-methoxy-N-methyl-3-piperazin-1-yl-benzenesulfonamide hydrochloride], the Ki was under 50 nM.
On the same count and under the same terms, then `CCN(c1cccc(OC(F)F)c1)S(=O)(=O)c1ccc(OC)c(N2CCNCC2)c1` [Example 29, N-(3-Difluoromethoxy-phenyl)-N-ethyl-4-methoxy-3-piperazin-1-yl-benzenesulfonamide hydrochloride], with under 10 nM.
Regarding `CCN(c1ccc(OC)c(OC(F)F)c1)S(=O)(=O)c1ccc(OC)c(N2CCNCC2)c1` [Example 30, N-(3-Difluoromethoxy-4-methoxy-phenyl)-N-ethyl-4-methoxy-3-piperazin-1-yl-benzenesulfonamide hydrochloride], the Ki was under 10 nM.
For the molecule `CCN(c1ccccc1OC(F)F)S(=O)(=O)c1ccc(OC)c(N2CCNCC2)c1` [Example 31, N-(2-Difluoromethoxy-phenyl)-N-ethyl-4-methoxy-3-piperazin-1-yl-benzenesulfonamide hydrochloride], the Ki was under 50 nM.
With `COc1ccc(S(=O)(=O)N(C)c2cccc(OC(F)F)c2)cc1N1CCNCC1` [Example 32, N-(3-Difluoromethoxy-phenyl)-4-methoxy-N-methyl-3-piperazin-1-yl-benzenesulfonamide hydrochloride], the Ki is under 10 nM.
For the molecule `CCCN(c1ccc(OC)c(OC(F)F)c1)S(=O)(=O)c1ccc(OC)c(N2CCNCC2)c1` [Example 33, N-(3-Difluoromethoxy-4-methoxy-phenyl)-4-methoxy-3-piperazin-1-yl-N-propyl-benzenesulfonamide hydrochloride], the Ki is under 10 nM.
Turning to `CCCN(c1cccc(OC(F)F)c1)S(=O)(=O)c1ccc(OC)c(N2CCNCC2)c1` [Example 34, N-(3-Difluoromethoxy-phenyl)-4-methoxy-3-piperazin-1-yl-N-propyl-benzenesulfonamide hydrochloride], the Ki was under 10 nM.
Regarding `COc1ccc(S(=O)(=O)Nc2cccc(OC(F)F)c2)cc1N1CCN(C)CC1` [Example 35, N-(3-Difluoromethoxy-phenyl)-4-methoxy-3-(4-methyl-piperazin-1-yl)-benzenesulfonamide hydrochloride], the Ki was under 10 nM.

In general, Ki refers to the equilibrium dissociation constant of an inhibitor or competing ligand from its target.
